# Like-named read-outs stand apart in the source and are kept apart here.
# Legend:
# 5-HT2A receptor = biological target: T1, 5-HT2A receptor (Homo sapiens, UniProt P28223); experiment: R-SAT functional assay, constitutively active wild type 5-HT2A receptor in NIH 3T3 cells; type: cell-based; conditions: for Negative LOG EC50 (inverse agonism, inhibition of constitutive activity): Table 2, molar negative log EC50, mean of three dose response experiments +/- standard error, 50 ng/well DNA
# T1 construct: expressed in transfected cells; host or cells: NIH 3T3 (mouse fibroblast)
# T1 sequence (P28223 whole entry): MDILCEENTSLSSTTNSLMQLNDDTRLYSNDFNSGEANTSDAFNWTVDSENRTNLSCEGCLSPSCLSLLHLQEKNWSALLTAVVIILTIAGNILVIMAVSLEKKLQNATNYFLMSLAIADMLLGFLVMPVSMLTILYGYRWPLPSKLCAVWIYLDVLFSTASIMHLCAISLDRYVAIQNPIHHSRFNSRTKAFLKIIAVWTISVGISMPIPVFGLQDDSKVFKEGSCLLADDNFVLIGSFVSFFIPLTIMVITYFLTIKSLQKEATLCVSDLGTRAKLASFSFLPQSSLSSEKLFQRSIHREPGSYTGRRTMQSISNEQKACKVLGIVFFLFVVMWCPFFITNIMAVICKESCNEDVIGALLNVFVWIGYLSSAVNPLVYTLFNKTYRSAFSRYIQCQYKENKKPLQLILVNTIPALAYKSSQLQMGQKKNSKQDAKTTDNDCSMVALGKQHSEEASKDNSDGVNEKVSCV
# human 5-HT2C receptor = biological target: T2, human 5-HT2C receptor (Homo sapiens, UniProt P28335); experiment: R-SAT functional assay, constitutively active wild type 5-HT2C receptor; type: cell-based; conditions: for EC50: read-out: 5-HT2C Receptor Negative Log EC50 (inverse agonism) (converted); for 5-HT2C Receptor Negative Log EC50 (inverse agonism): Table 3, 50 ng per well receptor DNA, assayed as agonists and inverse agonists
# T2 construct: expressed in transfected cells; host or cells: not restated for 5-HT2C; R-SAT as for 5-HT2A (NIH 3T3)
# T2 sequence (P28335 33-458): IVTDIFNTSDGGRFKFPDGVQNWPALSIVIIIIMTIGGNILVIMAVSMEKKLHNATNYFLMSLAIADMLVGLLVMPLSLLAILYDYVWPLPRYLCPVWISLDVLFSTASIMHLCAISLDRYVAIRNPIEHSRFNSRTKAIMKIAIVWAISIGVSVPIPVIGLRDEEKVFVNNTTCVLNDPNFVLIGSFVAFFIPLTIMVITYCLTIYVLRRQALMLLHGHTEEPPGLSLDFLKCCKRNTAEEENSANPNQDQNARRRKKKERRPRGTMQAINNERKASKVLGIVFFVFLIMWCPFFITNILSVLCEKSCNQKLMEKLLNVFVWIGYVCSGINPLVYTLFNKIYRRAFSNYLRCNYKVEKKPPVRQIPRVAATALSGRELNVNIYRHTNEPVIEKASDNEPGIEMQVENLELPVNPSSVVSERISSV
# [1] = Table 3, 50 ng/well receptor DNA, read-out: 5-HT2A Receptor Negative Log EC50 (inverse agonism) (converted)
# [2] = Table 3, 50 ng/well receptor DNA
# [3] = compounds screened at 300-500 nM, 50 ng/well receptor DNA, […], mean of duplicates
# [4] = read-out: Negative LOG EC50 (inverse agonism, inhibition of constitutive activity) (converted)
# [5] = compounds screened at 300-500 nM, 50 ng/well receptor DNA, inhibition from basal, referenced to ritanserin (90-100%), mean of duplicates
structure (smiles),measurement,setting,value
CN1CCN(C2=Nc3ccccc3Cc3ccccc32)CC1 [Perlapine],EC50,5-HT2A receptor; [1],0.0302 µM
same,EC50,human 5-HT2C receptor,1.29 µM
OCCN1CCN(CC/C=C2/c3ccccc3Sc3ccc(C(F)(F)F)cc32)CC1 [CIS-FLUPENTIXOL],"Negative LOG EC50 (inverse agonism, inhibition of constitutive activity)",5-HT2A receptor,8.04 +/− 0.10
same,5-HT2A Receptor Negative Log EC50 (inverse agonism),5-HT2A receptor; [2],8.04 +/− 0.10
same,% INHIBITION (screen for inverse agonism at 5-HT2A receptors),5-HT2A receptor; [3],45%
same,5-HT2C Receptor Negative Log EC50 (inverse agonism),human 5-HT2C receptor,No Intrinsic
OCCN1CCN(CC/C=C2\c3ccccc3Sc3ccc(C(F)(F)F)cc32)CC1 [Trans-Flupentixol],"Negative LOG EC50 (inverse agonism, inhibition of constitutive activity)",5-HT2A receptor,6.77 +/− 0.21
same,5-HT2A Receptor Negative Log EC50 (inverse agonism),5-HT2A receptor; [2],6.77 +/− 0.21
same,5-HT2C Receptor Negative Log EC50 (inverse agonism),human 5-HT2C receptor,5.55 +/− 0.37
CN1CCN(C2=Nc3ccccc3Sc3ccc(Cl)cc32)CC1 [Clothiapine],EC50,5-HT2A receptor; [1],0.00282 µM
same,EC50,human 5-HT2C receptor,0.479 µM
CCN(CC)CCCN1c2ccccc2Sc2ccc(Cl)cc21 [Chlorproethizene],5-HT2A Receptor Negative Log EC50 (inverse agonism),5-HT2A receptor; [2],7.70 +/− 0.33
same,5-HT2C Receptor Negative Log EC50 (inverse agonism),human 5-HT2C receptor,<5.0
CCNC(=O)N1CCN(CCCC(c2ccc(F)cc2)c2ccc(F)cc2)CC1 [Amperozide],EC50,5-HT2A receptor; [1],0.0158 µM
same,5-HT2C Receptor Negative Log EC50 (inverse agonism),human 5-HT2C receptor,No Intrinsic
CCN1CCCC1CNC(=O)c1cc(S(N)(=O)=O)ccc1OC (centres unmarked) [Sulpiride],5-HT2C Receptor Negative Log EC50 (inverse agonism),human 5-HT2C receptor,No Intrinsic
CN1CCN(C2=Nc3ccccc3Oc3ccc(Cl)cc32)CC1 [LOXAPINE],EC50,human 5-HT2C receptor,0.501 µM
CN1CCN(C2Cc3ccccc3Sc3ccc(Cl)cc32)CC1.O=C(O)/C=C\C(=O)O (centres unmarked) [OCTOCLOTHEPIN],5-HT2A Receptor Negative Log EC50 (inverse agonism),5-HT2A receptor; [2],9.74 +/− 0.98
same,% INHIBITION (screen for inverse agonism at 5-HT2A receptors),5-HT2A receptor; [3],76%
O=C(CCCN1CCC2(CC1)C(=O)NCN2c1ccccc1)c1ccc(F)cc1 [SPIPERONE],5-HT2C Receptor Negative Log EC50 (inverse agonism),human 5-HT2C receptor,No Intrinsic
CN1CCCCC1CCN1c2ccccc2Sc2ccc([S+](C)[O-])cc21 (centres unmarked) [Mesioridazine],5-HT2A Receptor Negative Log EC50 (inverse agonism),5-HT2A receptor; [2],7.00 +/− 0.30
same,5-HT2C Receptor Negative Log EC50 (inverse agonism),human 5-HT2C receptor,No Intrinsic
O=C1CC2(CCCC2)CC(=O)N1CCCCN1CCN(c2nsc3ccccc23)CC1 [Tiospirone],EC50,5-HT2A receptor; [1],0.00182 µM
same,EC50,human 5-HT2C receptor,0.513 µM
CSc1ccc2c(c1)C(N1CCN(C)CC1)Cc1ccccc1S2 (centres unmarked) [METHIOTHEPIN],% INHIBITION (screen for inverse agonism at 5-HT2A receptors),5-HT2A receptor,79%
O=C(CCCN1CCC(O)(c2cccc(C(F)(F)F)c2)CC1)c1ccc(F)cc1 [TRIFLUPERIDOL],EC50,5-HT2A receptor; [1],0.0257 µM
same,EC50,5-HT2A receptor; [4],0.0257 µM
same,EC50,human 5-HT2C receptor,> 10 µM
N[C@@H](Cc1c[nH]c2ccc(O)cc12)C(=O)O [5-hydroxy-Ltryptophan],% INHIBITION (screen for inverse agonism at 5-HT2A receptors),5-HT2A receptor; [5],53%
CN1CCN(CC/C=C2/c3ccccc3Sc3ccc(S(=O)(=O)N(C)C)cc32)CC1 [Thiothixene],5-HT2C Receptor Negative Log EC50 (inverse agonism),human 5-HT2C receptor,No Intrinsic
OCCN1CCN([C@@H]2C[C@@H](c3ccc(F)cc3)c3ccc(C(F)(F)F)cc32)CC1 (racemic) [Tefludazine],EC50,5-HT2A receptor; [1],0.000955 µM
same,EC50,5-HT2A receptor; [4],0.000955 µM
same,EC50,human 5-HT2C receptor,0.00525 µM
CN(C)CCCN1c2ccccc2Sc2cccnc21 [Prothypendyl],5-HT2A Receptor Negative Log EC50 (inverse agonism),5-HT2A receptor; [2],6.60 +/− 0.44
same,5-HT2C Receptor Negative Log EC50 (inverse agonism),human 5-HT2C receptor,Agonist
O=C(CCCN1CCC(O)(c2ccc(Br)cc2)CC1)c1ccc(F)cc1 [Bromperidol],5-HT2C Receptor Negative Log EC50 (inverse agonism),human 5-HT2C receptor,No Intrinsic
Cc1ccc(C2(O)CCN(CCCC(=O)c3ccc(F)cc3)CC2)cc1 [Moperone],5-HT2C Receptor Negative Log EC50 (inverse agonism),human 5-HT2C receptor,No Intrinsic
CC1CCN(CCCC(=O)c2ccc(F)cc2)CC1 [Melperone],5-HT2C Receptor Negative Log EC50 (inverse agonism),human 5-HT2C receptor,No Intrinsic
Cc1nc2ccccn2c(=O)c1CCN1CCC(C(=O)c2ccc(F)cc2)CC1 [PIRENPIRONE],% INHIBITION (screen for inverse agonism at 5-HT2A receptors),5-HT2A receptor; [5],92%
CN(C)CCCN1c2ccccc2Sc2ccccc21 [Promazine],5-HT2C Receptor Negative Log EC50 (inverse agonism),human 5-HT2C receptor,Agonist
Cc1nc2sccn2c(=O)c1CCN1CCC(=C(c2ccc(F)cc2)c2ccc(F)cc2)CC1 [RITANSERIN],Functional character at 5-HT2A receptor (inhibits signaling below baseline),"5-HT2A receptor; PSI vector expression, in words",inverse agonist

# Reference: patent US6358698B1 (Acadia Pharmacueticals Inc., priority 1998, dated 2002)
